According to PMC11189555, “Aryl amino acetamides prevent Plasmodium falciparum ring development via targeting the lipid-transfer protein PfSTART1” (Nature Communications, 2024):
“And” between values parts separate entries of the source, which are not always exact repeats. Equal values may be shown once.

Test system: 3D7 P. falciparum parasites
Assay: Growth inhibition assay (72 h, LDH activity)
Format: cell-based, Plasmodium falciparum
Experimental: Parasite growth assays with inhibitory compounds were performed as per[11] and are fully described in the Supplementary Information. […]
Growth inhibition assays. Synchronised ring-stage parasites (0.3-0.6% parasitemia, 2% haematocrit) were grown for 72 h in a serial-dilution of the compound under […]
and compound 4. Note that M-833 was first purchased from MolPort (MolPort -002-267-916) then made in-house at WEHI: the differences observed in EC50s across experiments are attributed to the different batches of M -833. For some experiments, 0, 0.25 or 2.5 mM of glucosamine (GlcN) was also added. Experiments were set up in technical duplicates or triplicates. Following a freeze -thaw cycle, lactate dehydrogenase (LDH) activity was assessed as an indicator of parasite growt h 5. 30 μL of parasite culture was incubated for 30 min in the dark with 75 μL Malstat mixture (0.1 M Tris pH 9.0, 20 g/L lactic acid, pH 7.5, 0.2% Triton-X100, 0.5 g/L acetylpyridine adenine dinucleotide (APAD, Sigma), 200 μg/mL nitroblue tetrazolium (NBT; Sigma), 1 μg/mL phenozine ethosulfate (PES; Sigma)). Absorbance was then measured at 650 nm, transformed using the formula below, plotted against the logarithm of the concentrations, and a non-linear regression (log(inhibitor) vs. response, variable slope) was calculated using GraphPad Prism to assess the half-inhibitory […]
Growth inhibition % = (1 − average(sample)− average(uRBC)) ∗ 100 […]
The DMSO samples were also used to assess growth of parasite in the presence of 0.25 and 2.5 mM GlcN (normalised by DMSO in 0 mM GlcN). […]

Cc1cc(Cl)c(S(=O)(=O)N2CCCC2)cc1OCC(=O)NC1CCCCC1 [M-833]
sample/DMSO (growth inhibition vs DMSO, LDH) (3D7, 0 mM GlcN, M-833 0.000508053 uM, biological replicates 1-3): 0.3955
sample/DMSO (growth inhibition vs DMSO, LDH) (3D7, 0 mM GlcN, M-833 0.00152416 uM, biological replicates 1-4): 3.899 and 0.6135 and 1.269 and -5.021
sample/DMSO (growth inhibition vs DMSO, LDH) (3D7, 0 mM GlcN, M-833 0.00457247 uM, biological replicates 1-4): 7.9783 and -0.1897 and 1.9685 and -5.962
sample/DMSO (growth inhibition vs DMSO, LDH) (3D7, 0 mM GlcN, M-833 0.0137174 uM, biological replicates 1-4): 6.577 and 0.4933 and 7.305 and 4.539
sample/DMSO (growth inhibition vs DMSO, LDH) (3D7, 0 mM GlcN, M-833 0.0411523 uM, biological replicates 1-4): 17.0189 and 4.351 and 25.6124 and 2.634
sample/DMSO (growth inhibition vs DMSO, LDH) (3D7, 0 mM GlcN, M-833 0.123457 uM, biological replicates 1-4): 41.0894 and 22.2426 and 56.6492 and 25.1037
sample/DMSO (growth inhibition vs DMSO, LDH) (3D7, 0 mM GlcN, M-833 0.37037 uM, biological replicates 1-4): 84.744 and 69.3587 and 86.7673 and 75.1317
sample/DMSO (growth inhibition vs DMSO, LDH) (3D7, 0 mM GlcN, M-833 1.11111 uM, biological replicates 1-4): 95.6718 and 89.236 and 91.7104 and 88.7258
sample/DMSO (growth inhibition vs DMSO, LDH) (3D7, 0 mM GlcN, M-833 3.33333 uM, biological replicates 1-4): 96.655 and 91.1143 and 93.0446 and 90.6646
Growth inhibition assay, NORMALISED (3D7, 0 mM GlcN, conc 13.7174 nM): 13.0746
Growth inhibition assay, NORMALISED (3D7, 0 mM GlcN, conc 41.1523 nM): 31.4939
Growth inhibition assay, NORMALISED (3D7, 0 mM GlcN, conc 123.457 nM): 59.8439
Growth inhibition assay, NORMALISED (3D7, 0 mM GlcN, conc 370.37 nM): 84.7029
Growth inhibition assay, NORMALISED (3D7, 0 mM GlcN, conc 1111.11 nM): 90.8825
Growth inhibition assay, NORMALISED (3D7, 0 mM GlcN, conc 3333.33 nM): 92.758
Growth inhibition assay, NORMALISED (3D7, 0 mM GlcN, conc 10000 nM): 93.376
sample/DMSO (growth inhibition vs DMSO, LDH) (3D7, 0.25 mM GlcN, M-833 0.000508053 uM, biological replicates 1-3): 3.472 and 0.2055
sample/DMSO (growth inhibition vs DMSO, LDH) (3D7, 0.25 mM GlcN, M-833 0.00152416 uM, biological replicates 1-4): 7.594 and 1.781 and -0.4107 and -3.683
sample/DMSO (growth inhibition vs DMSO, LDH) (3D7, 0.25 mM GlcN, M-833 0.00457247 uM, biological replicates 1-4): 11.6683 and 13.0152 and -3.5254 and -4.48
sample/DMSO (growth inhibition vs DMSO, LDH) (3D7, 0.25 mM GlcN, M-833 0.0137174 uM, biological replicates 1-4): 18.8525 and 10.2866 and 0.5749 and 7.343
sample/DMSO (growth inhibition vs DMSO, LDH) (3D7, 0.25 mM GlcN, M-833 0.0411523 uM, biological replicates 1-4): 37.8978 and 20.6188 and 3.974 and 3.155
sample/DMSO (growth inhibition vs DMSO, LDH) (3D7, 0.25 mM GlcN, M-833 0.123457 uM, biological replicates 1-4): 60.1495 and 44.3886 and 19.2191 and 24.7586
sample/DMSO (growth inhibition vs DMSO, LDH) (3D7, 0.25 mM GlcN, M-833 0.37037 uM, biological replicates 1-4): 90.2604 and 84.0393 and 70.7607 and 72.7038
sample/DMSO (growth inhibition vs DMSO, LDH) (3D7, 0.25 mM GlcN, M-833 1.11111 uM, biological replicates 1-4): 94.6962 and 95.3762 and 89.746 and 88.7379
sample/DMSO (growth inhibition vs DMSO, LDH) (3D7, 0.25 mM GlcN, M-833 3.33333 uM, biological replicates 1-4): 94.1176 and 95.9927 and 91.6288 and 90.366
Growth inhibition assay, NORMALISED (3D7, 0.25 mM GlcN, conc 123.457 nM): 65.6199 and 63.1151
Growth inhibition assay, NORMALISED (3D7, 0.25 mM GlcN, conc 370.37 nM): 87.6963 and 91.9897
Growth inhibition assay, NORMALISED (3D7, 0.25 mM GlcN, conc 1111.11 nM): 93.5707 and 96.2430
Growth inhibition assay, NORMALISED (3D7, 0.25 mM GlcN, conc 3333.33 nM): 94.9648 and 97.4583
Growth inhibition assay, NORMALISED (3D7, 0.25 mM GlcN, conc 10000 nM): 98.3055 and 95.804
NORMALISED (growth inhibition, LDH absorbance vs DMSO and uRBC) (3D7, 2.5 mM GlcN, M833 dilution point 1 of 10 (starting concentration 10 uM)): 96.8148 and 98.7231 and 95.2456
NORMALISED (growth inhibition, LDH absorbance vs DMSO and uRBC) (3D7, 2.5 mM GlcN, M833 dilution point 2 of 10 from 10 uM start): 95.7251 and 93.6187 and 97.3100
NORMALISED (growth inhibition, LDH absorbance vs DMSO and uRBC) (3D7, 2.5 mM GlcN, M833 dilution point 3 of 10 from 10 uM start): 96.9824 and 90.9335 and 96.6034
NORMALISED (growth inhibition, LDH absorbance vs DMSO and uRBC) (3D7, 2.5 mM GlcN, M833 dilution point 4 of 10 from 10 uM start): 93.881 and 84.8839 and 92.4066
NORMALISED (growth inhibition, LDH absorbance vs DMSO and uRBC) (3D7, 2.5 mM GlcN, M833 dilution point 5 of 10 from 10 uM start): 83.487 and 63.7656 and 70.6904
sample/DMSO (growth inhibition vs DMSO, LDH) (3D7, 2.5 mM GlcN, M-833 0.000508053 uM, biological replicates 1-3): -0.6607
sample/DMSO (growth inhibition vs DMSO, LDH) (3D7, 2.5 mM GlcN, M-833 0.00152416 uM, biological replicates 1-4): -1.11 and -0.7648 and -1.644 and -5.451
sample/DMSO (growth inhibition vs DMSO, LDH) (3D7, 2.5 mM GlcN, M-833 0.00457247 uM, biological replicates 1-4): 2.378 and 5.032 and -5.671 and -4.085
sample/DMSO (growth inhibition vs DMSO, LDH) (3D7, 2.5 mM GlcN, M-833 0.0137174 uM, biological replicates 1-4): 17.2304 and 4.206 and -1.672 and 24.2341
sample/DMSO (growth inhibition vs DMSO, LDH) (3D7, 2.5 mM GlcN, M-833 0.0411523 uM, biological replicates 1-4): 38.9006 and 17.4059 and 1.86 and 27.5421
sample/DMSO (growth inhibition vs DMSO, LDH) (3D7, 2.5 mM GlcN, M-833 0.123457 uM, biological replicates 1-4): 56.4218 and 44.1266 and 25.1289 and 54.0055
